Experimental data reported in article PMC11467779, “New anti-ovarian cancer quinolone derivatives acting by modulating microRNA processing machinery” (RSC Medicinal Chemistry, 2024).
“Also recorded” adds a separate entry of the source.

Legend:
[1] = test system: SKOV-3 cell line; assay: Antiproliferative effect against the SKOV-3 cell line (GI50, cell count); type: cell-based, human
Experimental: SKOV-3, A2780 and A2780 CIS were cultured and maintained, as previously described,[50] at 37 °C in RPMI 1640 medium (Euroclone) supplemented with 10% fetal bovine serum (FBS; Euroclone), L-glutamine and penicillin/streptomycin (SIGMA-ALDRICH). OVCA433, HEK-293T, HeLa, HCCLM3, SK-Hep-1, MCF-7, A549 and HCT-116 cells were maintained in DMEM medium (Euroclone) containing 10% FBS (Euroclone), L-glutamine and penicillin/streptomycin (SIGMA-ALDRICH). Wi-38 cells were cultured in DMEM medium (Euroclone) supplemented with 10% FBS (Euroclone), L-glutamine and penicillin/streptomycin (SIGMA-ALDRICH), and 1% non-essential amino acids (NEAA; Euroclone). The cultures were maintained in a constant temperature incubator at 37 °C with 5% CO2. […] Once cell adhesion had been promoted, the compounds were added to the culture medium. After 72 hours of treatment, the cells were counted, and the data analyzed by linear regression. Each experiment was carried out three times in triplicate and three separate cell counts were made for each sample. […] Afterwards, the concentration range was narrowed to the relative value obtained in the first evaluation in order to obtain an accurate value.

[2] = target: T1, hTopI (Homo sapiens, UniProt P11387); assay: Detection of hTOP1 cleavage complexes (cleavage assay); type: cell-based; conditions: 100 μM
T1 construct: endogenous in cells
T1 sequence (P11387 whole entry): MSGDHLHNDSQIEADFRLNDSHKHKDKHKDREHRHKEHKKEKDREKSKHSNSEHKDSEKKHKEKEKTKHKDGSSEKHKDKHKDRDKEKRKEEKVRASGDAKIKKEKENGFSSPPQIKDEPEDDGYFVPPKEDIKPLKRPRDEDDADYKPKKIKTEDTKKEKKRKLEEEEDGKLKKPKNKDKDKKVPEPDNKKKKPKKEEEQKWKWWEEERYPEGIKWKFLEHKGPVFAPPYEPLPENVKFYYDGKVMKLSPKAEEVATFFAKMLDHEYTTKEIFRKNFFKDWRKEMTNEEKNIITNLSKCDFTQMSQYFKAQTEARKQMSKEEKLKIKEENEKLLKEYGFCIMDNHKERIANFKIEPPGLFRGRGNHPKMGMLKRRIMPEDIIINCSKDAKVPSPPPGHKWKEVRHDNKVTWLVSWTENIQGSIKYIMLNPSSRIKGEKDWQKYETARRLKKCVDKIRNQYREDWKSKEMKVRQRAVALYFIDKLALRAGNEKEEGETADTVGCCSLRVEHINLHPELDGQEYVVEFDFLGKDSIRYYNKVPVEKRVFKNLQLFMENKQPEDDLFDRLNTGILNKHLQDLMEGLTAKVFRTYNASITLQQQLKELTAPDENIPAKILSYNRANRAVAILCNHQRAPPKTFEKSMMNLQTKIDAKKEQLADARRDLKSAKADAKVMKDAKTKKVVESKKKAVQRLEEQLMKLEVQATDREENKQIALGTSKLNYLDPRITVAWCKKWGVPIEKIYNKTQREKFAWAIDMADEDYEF
Experimental: After compound treatments, 1 × 10^6 human cells in 35 mm dish per sample were washed with 1× phosphate-buffered saline (PBS) and lysed with 600 μL of DNAzol (Invitrogen), followed by precipitation with 300 μL of 200 proof ethanol. The nucleic acids were collected, washed with 75% ethanol, resuspended in 200 μL of TE buffer, and then heated at 65 °C for 15 min, followed by shearing with sonication (40% output for 10 s pulse and 10 s rest for four times). The samples were centrifuged at 15 000 rpm for 5 min at 4 °C, and the supernatant were collected. 1 μL of each sample was removed for spectrophotometric measurement of absorbance at 260 nm to quantitate DNA content (NanoDrop). 2 μg of each sample was subjected to slot-blot for immunoblotting using anti-hTOP1 antibody (BD Pharmingen, 556597) and anti-hTOP2α antibody (Santa Cruz biotechnology, 365916).[51]

[3] = test system: KO TRBP HCCLM3 cells; assay: Antiproliferative effect on KO TRBP HCCLM3 cells (CCK-8); type: cell-based, human; conditions: 30 μM, 48 hours
Experimental: HCCLM3 and SK-Hep-1 cells were seeded into 96-well plates at a density of 10 000 cells per well and allowed to adhere overnight. Subsequently, the cells were treated with the following substances: 0.1% DMSO as the negative control, various concentrations of the test compounds, and 125 μM enoxacin as the positive control. After 48 h of incubation, the original culture medium was removed, and the cells were washed twice with PBS. Then, 100 μL of DMEM culture medium containing 10% CCK-8 (Bimake, USA) was added to each well. The plates were incubated for 30 minutes at 37 °C. To determine the […], measurements were taken at a wavelength of 450 nm using a Varioskan from Thermo Fisher Scientific.

[4] = test system: MCF-7 (breast cancer); assay: Proliferation of MCF-7 cells (trypan blue count); type: cell-based, human; conditions: 30 μM, 72 hours
Experimental: (§1) A2780 and SKOV-3 cells were treated with 50 μM of 33 for 72 h before RNA and protein extraction and expression analyses. A2780 and A2780 CIS were treated with 33 (30 μM) and/or cisplatin (1 μM, Sigma-Aldrich) for 48 hours while MCF-7, A549 and HCT-116 were treated with 33 (30 μM) for 72 hours. Total cell number and viability have been assessed using Trypan Blue Solution (Thermo Fisher Scientific) and Countess™ 3 Automated Cell Counter (Thermo Fisher Scientific).

[5] = test system: SKOV-3 cells; assay: SKOV-3 cell number, cell death and apoptosis markers (trypan blue, Western blot); type: cell-based, human; conditions: 30 μM, 72 hours
[6] = test system: A2780 cells; assay: A2780 cell number, cell death and apoptosis markers (trypan blue, Western blot); type: cell-based, human
From the text: […] […] Total cell number and viability have been assessed using Trypan Blue Solution (Thermo Fisher Scientific) and Countess™ 3 Automated Cell Counter (Thermo Fisher Scientific).
Lysates were loaded on 4–12% bis–tris-acrylamide gel (Life Technologies) and transferred to a nitrocellulose membrane. The membrane was blocked in 5% milk and hybridized with α-TRBP (15753-1-AP Proteintech), α-GAPDH (sc-25778, Santa Cruz Biotechnology), α-c-PARP (Bioss Antibodies, BSM-52408R), α-BCLXL (mAb #2764, Cell Signaling Technology) and α-β-actin (A3854, Sigma) antibodies. All the images were captured using the ChemiDocTM Touch Imaging System (Bio-Rad), and the densitometric analyses were performed using the associated Image Lab software (Bio-Rad).

[7] = test system: cisplatin-resistant A2780 cells (A2780 CIS); assay: Viable cells of cisplatin-resistant A2780 (A2780 CIS) treated with 33, cisplatin or both; type: cell-based, human; conditions: 48 hours
Experimental: as §1

SMILES: O=C(O)c1cn(C2CC2)c2cc(N3CCc4ccccc4C3)c(F)cc2c1=O [Compound 33, 1-Cyclopropyl-7-(3,4-dihydroisoquinolin-2(1H)-yl)-6-fluoro-4-oxo-1,4-dihydroquinoline-3-carboxylic acid]
- GI50 ([1]; Homo sapiens, SK-OV-3, 72 h, 50% cell growth inhibition, 72 hours of treatment, cell count, ND = activity not dose dependent): 13.5 ± 1.45 µM
- GI50 SKOV-3, fold lower than enoxacin ([1]; versus enoxacin): about 9 fold
- trapping/inhibition of hTopI (cleavage assay) [2]: no inhibition or trapping activity
- antiproliferative effect on KO TRBP HCCLM3 cells [3]: no antiproliferative effect
- effect on MCF-7 cell proliferation [4]: significant inhibitory effect on cell proliferation
- c-PARP and Bcl-XL in SKOV-3 cells ([5]; Western blot): No changes
- total number of SKOV-3 cells ([5]; trypan blue): greatly reduced
- Bcl-XL protein in A2780 cells ([6]; 30 μM, 72 hours, Western blot): downregulation
- cleaved PARP1 (c-PARP) levels in A2780 cells ([6]; 30 μM, 72 hours, Western blot): increased levels of cleaved PARP1
- percentage of dead A2780 cells ([6]; 30 μM, 72 hours, trypan blue): increased to a great extent
- total number of A2780 cells ([6]; 30 μM, 72 hours, trypan blue): greatly reduced
- effect of 33 in combination with cisplatin on A2780 proliferation ([6]; 33 30 μM + cisplatin 1 μM, 48 hours): more pronounced inhibitory effect on A2780 proliferation
- sensitivity of A2780 CIS and A2780 to 33 alone ([7]; 30 μM): equal sensitivity
- effect of 33 in combination with cisplatin on A2780 CIS ([7]; 33 30 μM + cisplatin 1 μM): synergistic effect; also recorded: sensitized A2780 CIS to cisplatin
